Like-named read-outs stand apart in the source and are kept apart here.

One assay relates to B. cinerea. Nature of the assay: Effect of concentration and of synergistic combinations of essential oils and chitosan salts on spore germination of B. cinerea. The assay is classed as cell-based, Botrytis cinerea. As to the method:
(§1) E. coli (Strain #139 HB101/p5G6) was grown at 24° C. for 48 hr in shake-flask cultures of Lennox broth (LB). Bacterial cells were pelleted by centrifugation in a Sorvall RC-58 centrifuge (Dupont Instruments, Wilmington, Del.) at 3000 g for 20 min, resuspended in sterile distilled water, and centrifuged again. The resulting pellets were dispersed in sterile distilled water and the cell concentration was adjusted to 10^6 CFU per ml using a standard optical density (OD) curve with the OD values of 0.1 and 1 representing viable cell counts of 1×10^6 and 1×10^9, respectively. E. coli 015:H7 and L. monocytogenes isolates were grown overnight at 37° C. in trypticase soy broth and brain heart infusion, respectively. The concentration of cells was adjusted to 10^6 CFU per ml. Botrytis cinerea and Penicillium expansum were isolated from infected fruit and maintained on potato dextrose agar (PDA). A spore suspension was obtained by flooding 2 wk cultures of B. cinerea with sterile distilled water containing 0.1% (v/v) TWEEN 80. Spore counts were determined with a hemacytometer and spore concentrations were adjusted with sterile distilled water to obtain 10^5 spores per ml.
(§2) The individual effects of various essential oils and chitosan salts, and the combined effects of essential oils and chitosan salts on the growth of the indicator organism E. coli and on the postharvest pathogen B. cinerea were determined. To measure the effects of the various treatments on spore germination of B. cinerea and growth of the E. coli, the essential oils: bay, cinnamon, savory, thyme red, allspice, birch, cloves, carvacrol, and hinokitiol (Aroma Vera, Cuber City, Calif.) and MMW chitosan in acetic, propionic, and sorbic acids were combined together with B. cinerea or E. coli to yield final concentrations of 0.1 to 0.025% for the essential oils and 0.1 to 0.0016% for the chitosan salts. For the assays, 500 spores of B. cinerea were added to each treatment in microtiter dishes or three ml of a 2X concentration of E. coli (i.e., 2×10^6 CFU/ml) were combined with three ml of a 2X concentration of treatment in a 15 ml centrifuge tube, agitated overnight, and plated after 24 hr onto LB agar plates (100 μl suspension/plate). The surfactant (Triton×100) was present at a final concentration of 0.04%. […] Four replicate tubes of each treatment were used; each experiment was repeated twice. The viable bacterial cell number was counted by surface plating serially diluted samples in triplicate on LB agar medium. Plates were incubated at 24° C. and colonies were counted at 48 hr. Botrytis spore germination was determined microscopically.

The subject of the next assay is E. coli. The assay is classed as cell-based, Escherichia coli. Conditions: for concentration at which inhibitory to E. coli growth: essential oil tested individually. As to the method:
as §1, §2

The next assay has as its system E. coli on apple disks. More on the design: species or system Escherichia coli. How it is done: as §1
Tree-ripe apples (Malus domestica Borkh) cultivar ‘Red delicious’ were hand-picked at harvest maturity at the Appalachian Fruit Research Station, Kearneysville, W. Va. Fruit were sorted to remove any with apparent injuries or infections and stored at 4° C. under refrigeration before being used in the biocontrol tests. Apple disks (10 mm) were excised from selected Red delicious apples using a cork borer. Apple disks were treated by immersion for 90 min in a 0.1% solution of various essential oils and/or their combinations with 0.1 % chitosan salts. Disks were either treated with the different combinations of natural compounds and then inoculated with E. coli by soaking apple disks in a solution of E. coli for 90 min or inoculated with E. coli and incubated at 24° C. for 24 hr. From each treatment four disks were selected randomly, individually homogenized in 5 ml of sterile water, vortexed, and dilution plated in triplicate on a LB agar medium. Plates were incubated at 24° C. and colonies were counted after 48 hr.

[1] abbreviates: essential oil alone 0.025% v/v, CFU in 100 μl sample.
The mark [2] stands for this setting: essential oil alone 0.05% v/v, CFU in 100 μl sample.
Where [3] appears, read: essential oil alone 0.075% v/v, CFU in 100 μl sample.
[4] abbreviates: essential oil alone 0.1% v/v, CFU in 100 μl sample.

Turning to `CC(C)c1cccc(=O)c(O)c1` [Hinokitiol, hinokitiol], the “Percent Inhibition of Spore Germination, combination” value in the assay on B. cinerea, in the assay on B. cinerea (essential oil 0.067% + Chitosan acetate 0.02%) and with B. cinerea (essential oil 0.067% + Chitosan propionate 0.02%) was 100% throughout. Further, in the assay with B. cinerea (essential oil 0.067% + Water (no chitosan salt)), the “Percent Inhibition of Spore Germination, synergy table” value is reported as 0%. Moreover, the “Growth of E. coli (CFU), combination” value in the assay on E. coli is reported as 60 CFU; in the assay with E. coli (essential oil 0.075% + Chitosan acetate 0.0032%, CFU in 100 μl sample) it was 102 CFU; with E. coli (essential oil 0.075% + Chitosan propionate 0.0032%, CFU in 100 μl sample), 56 CFU. Further, the “Growth of E. coli (CFU), synergy table” value in the assay with E. coli (essential oil 0.075% + Water (no chitosan salt), CFU in 100 μl sample) came out at 1108 CFU. Also, the “Growth of E. coli (CFU)” value with E. coli (setting [1]) is “TNTC”; in the assay with E. coli (setting [2]) it was “TNTC”; in the assay on E. coli (setting [3]), 812 CFU; with E. coli (setting [4]) it was 0 CFU. Also, in the assay with E. coli, the “concentration at which inhibitory to E. coli growth” value worked out at 0.075%.

In the case of `CC=CC=CC(=O)O` [Sorbate], in the assay on E. coli on apple disks, the “Eradicant Activity E. coli (CFU)” value is reported as “TNTC” and the “Protectant Activity E. coli (CFU)” value is recorded as “TNTC”.

Take `CCC(=O)O` [Propionate]: in the assay with E. coli on apple disks (apple disks immersed in 10^6 CFU per ml E. coli for 90 min, drained, then treated (0.1% v/v)), the “Eradicant Activity E. coli (CFU)” value is listed as “TNTC”. In the assay with E. coli on apple disks (apple disks treated (0.1% v/v), thereafter immersed in 10^6 CFU per ml E. coli for 90 min, CFU in 100 ml sample), the “Protectant Activity E. coli (CFU)” value is given as “TNTC”.

`Cc1ccc(C(C)C)cc1O` [Carvacrol, carvacrol]: the “Growth of E. coli (CFU), synergy table” value in the assay with E. coli is reported as 1430 CFU. In addition, the “Growth of E. coli (CFU)” value in the assay with E. coli (setting [1]) is given as “TNTC”; with E. coli (setting [2]), 0 CFU; with E. coli (setting [3]) it was 0 CFU; in the assay with E. coli (setting [4]) it was 0 CFU. In the assay on E. coli, the “concentration at which inhibitory to E. coli growth” value was determined as 0.05%.

These data come from patent publication US20030113421A1, “Synergistic combinations of natural of compounds that control decay of fruits and vegetables and reduce contamination by foodborne human pathogens” (priority 2001, published 2003).
